Data published in patent publication US4234736A, “Antiandrogenic and schistosomicidal imidazolidine derivatives” (Hoffmann-La Roche Inc., priority 1977, dated 1980).
Several values for one entry are separate records, joined by “and”; a condition that tells them apart may be missing. Equal entries are not always repeated.

Tests used:
Schistosoma mansoni = experiment: Schistosomicidal activity in infected mice (VD50); assay type: in vivo; conditions: po, 1008 h, p.o., administered 5 times (5 successive days), from 42 days after infection, Probit method, read-out: VD50 (vermicidal dose 50%: the dose which kills 50% of the worm pairs)
Procedure: Mice were infected subcutaneously with 60 cercariae of Schistosoma mansoni. 42 days after the infection, the animals were treated perorally on 5 successive days with the compositions to be tested 5-10 mice were used for each composition and dosage rate (mg/kg). 10 untreated mice serve as the control. The mice were autopsied either 6 days or 2-3 weeks after conclusion of the treatment. Worm pairs in mesenteric veins, the portal vein and the liver were removed and counted. The percent distribution of the worm pairs in mesenteric veins, the portal vein and the liver was calculated and the condition of the worms (living and dead) recorded. The schistosomicidal activity of the compositions containing a compound of formula I is shown both by an increased proportion of worms in the vessels of the liver and in the appearance of dead worms.
For the evaluation, the percentage proportions of living and dead worm pairs in the vessels of the liver both in infected, treated animals and in infected but untreated control animals were compared. The determination of the VD50 (vermicidal dose 50%: the dose which kills 50% of the worm pairs) is carried out by the Probit method.

seminal vesicle = experiment: Antiandrogenic test: seminal vesicle weight in testosterone propionate-treated rats; assay type: in vivo, rat; conditions: sterilized male rats, 5 per group; s.c. daily for 7 days; compound 10 mg/kg + testosterone propionate 0.5 mg/kg, or testosterone propionate 0.5 mg/kg alone
Procedure: (§1) The antiandrogenic activity of the compositions of this invention can be determined in the following test:
(§2) 10 mg. per kg of the composition together with 0.5 mg. per kg. of testosterone propionate are administered s.c. daily for 7 days to each of 5 male, sterilized rats. Two control groups of 5 rats each were also used. One control group received no treatment. The second control group received only 0.5 mg. per kg. of testosterone propionate.
(§3) Testosterone propionate causes an increase in weight in the ventral prostrate and the seminal vesicle. Thus, a decrease in weight in the ventral prostrate and the seminal vesicle when a composition containing a compound of formula I is given to the rats in combination with testosterone propionate is a measure of the antiandrogenic activity of that compound.

ventral prostate = experiment: Antiandrogenic test: ventral prostate weight in testosterone propionate-treated rats; assay type: in vivo, rat; conditions: sterilized male rats, 5 per group; s.c. daily for 7 days; compound 10 mg/kg + testosterone propionate 0.5 mg/kg, or testosterone propionate 0.5 mg/kg alone
Procedure: as §1, §2, §3

[1] = LD50 (acute toxicity), p.o.; conditions: in vivo, po, species not given

Row | SMILES | ED50 (Schistosoma mansoni) [mg/kg] | Seminal vesicle weight (seminal vesicle) | Ventral prostate weight (ventral prostate) | LD50 [1] [mg/kg]
1 | COC(=O)C(C)(C)NC(=O)Nc1ccc(Cl)c(C(F)(F)F)c1 [N-[(3-Trifluoromethyl-4-chloro-phenyl)-carbamoyl]-2-methylalanine methyl ester] | 74 | 47 ± 11 mg | 61 ± 6 mg | > 5000
2 | CC1(C)NC(=O)N(c2ccc(F)cc2)C1=O [3-(4-Fluoro-phenyl)-5,5-dimethyl-hydantoin] | 69 |  |  | 600 to 1200
3 | CC1(C)NC(=O)N(c2cccc(C(F)(F)F)c2)C1=O [3-(3-Trifluoromethyl-phenyl)-5,5-dimethyl-hydantoin] |  |  |  | 625 to 1250
4 | CC1(C)NC(=O)N(c2ccc(Cl)cc2)C1=O [3-(4-Chloro-phenyl)-5,5-dimethyl-hydantoin] | 77 |  |  | 1250 to 2500
5 | CC1(C)NC(=O)N(c2ccc(Cl)c(Cl)c2)C1=O [3-(3,4-Dichloro-phenyl)-5,5-dimethyl-hydantoin] | 58 | 29 ± 2 mg | 36 ± 4 mg | 2500 to 5000
6 | CCC(=O)O[C@H]1CC[C@H]2[C@@H]3CCC4=CC(=O)CC[C@]4(C)[C@H]3CC[C@]12C [Testosterone propionate, reference compound] |  | 88 ± 5 mg and 100 ± 9 mg | 140 ± 11 mg and 121 ± 13 mg | 
